For 18 compounds, Activity and EC50 results are on record in ChEMBL document CHEMBL1153415, “Evaluation of antioxidant properties of monoaromatic derivatives of pulvinic acids” (J Med Chem, 2009).

Usually EC50 stands for the concentration at which the effect is half-maximal.

The source made the active and inactive calls. The calls are words filed in the database; no cut-off is given here.

The nature of data set [1]: Antioxidant activity against UV/H2O2-induced thymidine degradation at 100 uM by thymidine protection assay. It is filed as functional.
The nature of data set [2]: Antioxidant activity against Fe/EDTA/H2O2-induced thymidine degradation at 100 uM by thymidine protection assay. Format: functional.
A short description of data set [3]: Antioxidant activity against […]/EDTA/H2O2-induced pEGFPLuc plasmid DNA degradation assessed as remaining supercoiled DNA form at 125 uM by gel-electrophoresis. Format: functional.
The nature of data set [4]: Antioxidant activity against superoxide radical assessed as trolox equivalents by luminol-enhanced chemiluminescence. Format: functional.
For another data set, the system named is CHO. Nature of the data set: Cytotoxicity against CHO cells at 10 to 100 uM by MTT assay relative to control. It is filed as cell-based, Cricetulus griseus. The following applies: chinese hamster. Background: Tetrazolium dyes change colour on reduction, which living cells bring about.
Data set [5] is described as follows: Antioxidant activity against UV/H2O2-induced thymidine degradation by thymidine protection assay. It is filed as functional.
Data set [6] can be described thus: Antioxidant activity against Fe/EDTA/H2O2-induced thymidine degradation by thymidine protection assay. Format: functional.

For `COc1ccc(C2=C(O)/C(=C(/C)C(=O)OC(C)C)OC2=O)cc1`, the Activity in data set [1] came to 27%; in data set [2], 37%; in data set [4] it was 105 µg. In addition, the outcome in data set [3] was Active.

Regarding `COc1ccc(C2=C(O)/C(=C(/C)C(=O)N3CCOCC3)OC2=O)cc1`, the Activity in data set [1] was 30%; in data set [2] it was 37%; in data set [4], 79 µg; in the data set on CHO it was “Non-toxic”. Further, in data set [3], the result was Active.

With `COC(=O)/C(C)=C1/OC(=O)C(c2ccccc2)=C1O`, the result in data set [3] was Active. For the same compound, the Activity entry in the data set with CHO is on record as “Non-toxic”.

For the compound `COC(=O)/C(=C1/OC(=O)C(C)=C1O)c1ccc(Br)cc1`, the Activity in data set [4] worked out at 87 µg.

On to `COc1ccc(C2=C(O)/C(=C(/C)C(=O)N(C)OC)OC2=O)cc1`, for which the Activity in data set [1] stood at 30%; in data set [2], 37%. The outcome in data set [3] was Active.

For the compound `COC(=O)/C(C)=C1/OC(=O)C(c2ccc(OC)cc2)=C1O`, the results for the EC50 in data set [5] and in data set [6] were 130 µM and 196 µM, respectively. Besides, the Activity came to 40% in data set [3] and 141 µg in data set [4].

As to `COc1ccc(/C(C(=O)OC(C)C)=C2\OC(=O)C(C)=C2O)cc1`, the Activity in data set [4] is 77 µg; in the data set on CHO, “Non-toxic”.

With `COc1ccc(C2=C(O)/C(=C(/C)C(C)(C)O)OC2=O)cc1`, the EC50 in data set [5] came out at 117 µM; in data set [6], 608 µM. The results for the Activity (in data set [3]; in the data set with CHO) were 40% and “Non-toxic”, respectively.

Turning to `CCCCNC(=O)/C(C)=C1/OC(=O)C(c2ccc(OC)cc2)=C1O`, the Activity is 30% in data set [1]; 37% in data set [2]; 40% in data set [3]; 86 µg in data set [4]; “Non-toxic” in the data set on CHO. The EC50 in data set [5] was 91 µM; in data set [6], 226 µM.

For `COC(=O)/C(=C1/OC(=O)C(C)=C1O)c1ccccc1`, the EC50 in data set [5] came to 220 µM; in data set [6] it was 850 µM. In the data set on CHO, the Activity result was “Non-toxic”.

As for `COC(=O)/C(=C1/OC(=O)C(c2ccccc2)=C1O)c1ccccc1`, the outcome in data set [1] and in data set [2] was Active.

`COC(=O)/C(=C1/OC(=O)C(C)=C1O)c1ccc(OC)cc1`: the results for the EC50 in data set [5] and in data set [6] were 175 µM and 971 µM, respectively.

As to `COC(=O)/C(C)=C1/OC(=O)C(c2ccc(F)cc2)=C1O`, the result in data set [1], in data set [2] and in data set [3] was Active.

As for `COC(=O)/C(C)=C1/OC(=O)C(c2ccc(Br)cc2)=C1O`, the result in data set [1], in data set [2] and in data set [3] was Active. Also, the Activity in data set [4] is 113 µg; with CHO, “Non-toxic”.

As for `COC(=O)/C(C)=C1/OC(=O)C(c2ccc(C(C)C)cc2)=C1O`, the outcome in data set [1], in data set [2] and in data set [3] was Active.

In the case of `COC(=O)/C(C)=C1/OC(=O)C(/C=C/c2ccccc2)=C1O`, the result in data set [1], in data set [2] and in data set [3] was Active.

`COc1ccc(C2=C(O)/C(=C(/C)C(=O)NCCCN)OC2=O)cc1`: the Activity in data set [1] is 30%; in data set [2] it was 37%; in data set [3], 40%; in data set [4], 81 µg.

Take `COC(=O)/C(=C1/OC(O)=C(c2ccc(OC)cc2)C1=O)c1ccc(OC)cc1`: the results for the EC50 in data set [5] and in data set [6] were 90 µM and 109 µM, respectively. Besides, in data set [3], the outcome was Active. Further, the Activity was 54 µg in data set [4] and “Non-toxic” in the data set with CHO.
